The nature of this data set: physchem. To be noted: 25 °C, water.

Converted amounts (≈) assume the structure as drawn.

As to `CCCCC(=O)O[C@]1(C(=O)COC(C)=O)CC[C@H]2[C@@H]3CCC4=CC(=O)C=C[C@]4(C)[C@H]3[C@@H](O)C[C@@]21C` [prednisolone valerate acetate], the solubility is 4 µg/mL. Then `CSc1ccc(-c2nn(Cc3ccccc3)c(=O)cc2-c2ccc(Cl)cc2)cc1` [Compound A, 2-benzyl-5-(4-chlorophenyl)-6-[4-(methylthio)phenyl]-2H-pyridazin-3-one], with 0.01 µg/mL (≈ 0.0239 µM); and `CC(C)CCC[C@@H](C)[C@H]1CC[C@H]2[C@@H]3CC=C4C[C@@H](O)CC[C@]4(C)[C@H]3CC[C@]12C` [cholesterol], with 0.1 µg/mL (≈ 0.259 µM). In turn, `O=C(Nc1cccc2c(=O)cc(-c3nnn[nH]3)oc12)c1ccc(OCCCCc2ccccc2)cc1` [pranlukast] gave a solubility of 0.9 µg/mL (≈ 1.87 µM).

Broadly, the solubility is the dissolved amount per volume that the medium holds. Lower therefore signals a poorly soluble substance.

Values taken from patent US8105630B2, “Composition containing medicine extremely slightly soluble in water being excellent in eluting property and method for preparation thereof” (Kowa Co., Ltd., priority 2003, dated 2012).
